Assay results: the NIST ThermoML archive (doi:10.1021/je049953t)
Numbers after ± are expanded uncertainties.

Tests used:
[1] = 298.15 K; 101.33 kPa; Liquid
[2] = excess molar enthalpy (molar enthalpy of mixing); xn = mol fraction of the nth substance listed; conditions: 101.33 kPa, Liquid, Flow calorimetry

Row | mass density [1] [kg/m3] | excess molar enthalpy ([2]; 298.15 K, x1 = 0.03) [kcal/mol] | excess molar enthalpy ([2]; 298.15 K, x1 = 0.0611) [kcal/mol] | excess molar enthalpy ([2]; 298.15 K, x1 = 0.0613) [kcal/mol] | excess molar enthalpy ([2]; 298.15 K, x1 = 0.094) [kcal/mol] | excess molar enthalpy ([2]; 298.15 K, x1 = 0.9462) [kcal/mol] | excess molar enthalpy ([2]; 313.15 K, x1 = 0.03) [kcal/mol] | excess molar enthalpy ([2]; 313.15 K, x1 = 0.0611) [kcal/mol] | excess molar enthalpy ([2]; 313.15 K, x1 = 0.0613) [kcal/mol] | excess molar enthalpy ([2]; 313.15 K, x1 = 0.094) [kcal/mol] | excess molar enthalpy ([2]; 313.15 K, x1 = 0.1281) [kcal/mol] | excess molar enthalpy ([2]; 313.15 K, x1 = 0.9178) [kcal/mol] | excess molar enthalpy ([2]; 313.15 K, x1 = 0.9462) [kcal/mol] | excess molar enthalpy ([2]; 313.15 K, x1 = 0.9469) [kcal/mol] | Compound
1 | 943.81 ± 0.15 | – | – | – | – | – | – | – | – | – | – | – | – | – | CN(C)C=O [dimethylformamide]
2 | – | 0.0551 ± 0.00148 | 0.105 ± 0.00239 | 0.105 ± 0.00239 | 0.154 ± 0.00335 | 0.112 ± 0.00239 | 0.0551 ± 0.00148 | 0.107 ± 0.00239 | 0.108 ± 0.00239 | 0.157 ± 0.00359 | 0.202 ± 0.0043 | 0.174 ± 0.00382 | 0.113 ± 0.00263 | 0.11 ± 0.00263 | CCCC(C)C [2-methylpentane] + CN(C)C=O
3 | 648.45 ± 0.44 | – | – | – | – | – | – | – | – | – | – | – | – | – | CCCC(C)C [2-methylpentane]
